From PubChem BioAssay (NCI)
Several values for one entry are separate records, joined by “and”; a condition that tells them apart may be missing. Equal values may be shown once.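 Method: 48-hour compound exposure of cells in 96-well plates, five concentrations, linear interpolation of endpoints. GI50: concentration for 50% inhibition of growth. TGI: concentration producing complete growth inhibition.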

Columns and labels:
Assay in all cases: NCI anticancer screen, dose series, 48 h
K-562 leukemia = tested on: K-562 leukemia
U251 CNS = tested on: U251 CNS
SF-539 CNS = tested on: SF-539 CNS
HCC-2998 colon = tested on: HCC-2998 colon
UACC-62 melanoma = tested on: UACC-62 melanoma
SW-620 colon = tested on: SW-620 colon
M14 melanoma = tested on: M14 melanoma
SNB-75 CNS = tested on: SNB-75 CNS
ACHN renal = tested on: ACHN renal
NCI/ADR-RES ovarian = tested on: NCI/ADR-RES ovarian

Structure (SMILES)	GI50 (K-562 leukemia)	TGI (K-562 leukemia) [µM]	GI50 (U251 CNS)	TGI (U251 CNS)	GI50 (SF-539 CNS)	TGI (SF-539 CNS)	GI50 (HCC-2998 colon)	TGI (HCC-2998 colon)	GI50 (UACC-62 melanoma)	TGI (UACC-62 melanoma)	GI50 (SW-620 colon)	TGI (SW-620 colon)	GI50 (M14 melanoma)	TGI (M14 melanoma)	GI50 (SNB-75 CNS)	TGI (SNB-75 CNS)	GI50 (ACHN renal)	TGI (ACHN renal)	GI50 (NCI/ADR-RES ovarian)	TGI (NCI/ADR-RES ovarian)
CCCCCCCCCCC/C=C\C[C@H](O)C/C=C1/C(=O)C=C[C@@H]1C/C=C\CCCC(=O)OC	0.898 µM	3.2	0.581 µM	1.53 µM	1.02 µM	3.71 µM	1.24 µM	4.01 µM	0.553 µM	1.33 µM	1.09 µM	4.05 µM	1.04 µM	4.32 µM	2.07 µM	6.79 µM	1.23 µM	4.9 µM	0.925 µM	2.93 µM
Cc1ccc(/C=C/C(=N/N=C(N)N)c2ccccc2)cc1	0.889 µM	10.4	3.1 µM	12.5 µM	2.75 µM	8.65 µM	3.11 µM	11.8 µM	2.65 µM	11.9 µM	2.47 µM	13.8 µM	1.67 µM	3.95 µM	2.04 µM	7.41 µM	4.17 µM	17.4 µM	3.14 µM	12 µM
CC1(C)CCCC(C)(C2CCC3(C)C2C(O)CC2C4(C)CCC(O)C(C)(C)C4C(O)CC23C)O1 (centres undefined)		25.1		34.4 µM		28.1 µM		27.9 µM		27.5 µM		41.6 µM		31.7 µM		24.6 µM		24.5 µM		37.4 µM
CSc1ccc2c(c1)N(CCC1CCCCN1C)c1ccccc1S2 (centres undefined)	2.13 µM	4.4	5.92 µM and 3.53 µM	19.2 µM and 12.2 µM	14.1 µM and 5.63 µM	28.2 µM and 18.2 µM	3.12 µM and 4.54 µM	11.5 µM and 14.1 µM	3.16 µM and 3.05 µM	13.6 µM and 7.13 µM	10.8 µM and 2.52 µM	24.6 µM and 7.23 µM	2.17 µM and 1.85 µM	4.89 µM and 3.76 µM	5.64 µM and 3.49 µM	22.1 µM and 12.3 µM	4.39 µM and 3.75 µM	15.2 µM and 13.5 µM	10.4 µM and 4.76 µM	24.1 µM and 18.5 µM
Clc1nc(Cl)c2c3c(sc2n1)CCCC3	3.77 µM	> 100	> 20 µM	> 100 µM	> 100 µM	> 100 µM	> 28.9 µM	> 100 µM	> 100 µM	> 100 µM	5.37 µM	> 100 µM	4.49 µM	> 100 µM	> 100 µM	> 100 µM	5.27 µM	> 100 µM	5.29 µM	> 100 µM
Cc1cc2nc3ccc(=[N+](C)C)cc-3sc2cc1N	0.201 µM and 0.318 µM		0.357 µM and 0.381 µM	2.55 µM and 18.9 µM and 2.11 µM	0.343 µM and 0.349 µM	1.64 µM and 8.97 µM and 1.55 µM	1.2 µM and 2.12 µM	7.36 µM and 12.2 µM and 10.9 µM	0.541 µM and 1.07 µM	2.21 µM and 5.49 µM and 4.52 µM	0.289 µM and 1.13 µM	1.24 µM and 9.68 µM and 3.05 µM	0.368 µM and 0.703 µM	1.38 µM and 9.09 µM and 2.28 µM	1.43 µM and 1.34 µM	4.03 µM and 24.5 µM and 3.37 µM	0.844 µM and 1.1 µM		0.272 µM and 0.265 µM	3.61 µM and 7.98 µM and 1.49 µM
COC(C(=O)C(O)C(C)O)C1Cc2cc3cc(OC4CC(OC5CC(O)C(O)C(C)O5)C(O)C(C)O4)c(C)c(O)c3c(O)c2C(=O)C1OC1CC(OC2CC(O)C(OC3CC(C)(O)C(O)C(C)O3)C(C)O2)C(O)C(C)O1 (centres undefined)	0.0112 µg/mL and 0.00232 µg/mL		0.0112 µg/mL and 0.000643 µg/mL		0.0112 µg/mL and 0.000474 µg/mL		0.0117 µg/mL and 0.000297 µg/mL		0.0112 µg/mL and 0.00054 µg/mL		0.0121 µg/mL and 0.00236 µg/mL		0.047 µg/mL and 0.0293 µg/mL		0.0112 µg/mL and 0.000782 µg/mL		0.0162 µg/mL and 0.0326 µg/mL	112 µg/mL and > 150 µg/mL	3.87 µg/mL and 0.0809 µg/mL	
